Assay results from patent US20260242416A1, “ANTIMICROBIAL PEPTIDES” (priority 2023, published 2026).
In brackets after ≈: the same amount, converted by molar mass. Entries after “also recorded” stand apart in the source; their conditions may differ. Like-named read-outs stand apart in the source and are kept apart here. Where a SMILES comes first, the peptide text is derived from it.

Experiments:
[1] = test system: E. coli ATCC 25922, Salmonella Enteritidis, S. aureus ATCC 29213; experiment: Broth microdilution, panel result (at least one / all strains), Example 2; format: cell-based; design: key to inhibitory activity (asterisk): *Indicates inhibitory activity; conditions: for inhibitory activity (asterisk): Table 14, against at least one of E. coli ATCC 25922, Salmonella Enteritidis, S. aureus ATCC 29213; for spectrum of antimicrobial activity: panel of E. coli, Salmonella Enteritidis, S. aureus, up to 128 μg/mL
In short: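 CLSI broth microdilution adapted for cationic peptides, in MHB with a final inoculum of 2-8×10^5 cfu/mL in polypropylene plates. Peptides were serially diluted from 128 down to 0.5 μg/mL and incubated 20-24 h at 37° C. MIC is the lowest concentration with no visible growth.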

[2] = test system: Escherichia coli ATCC 25922; experiment: Antimicrobial susceptibility testing (MIC/MBC), Example 1; format: cell-based; conditions: Table 3; footnote: wild-type Escherichia coli ATCC 29522; minimum of three independent experiments
Procedure: Twenty-one putative AMP sequences identified using the rAMPage pipeline were validated through a minimum of three AST experiments performed independently on separate days. In these tests, the AMP activity was assessed using two metrics: minimum inhibitory concentration and minimum bactericidal concentration (MIC and MBC, respectively). MIC and MBC values were determined using procedures outlined by the Clinical and Laboratory Standards Institute (CLSI), with the recommended adaptations for the testing of cationic AMPs described previously. “Wild-type” strains of Escherichia coli (E. coli 25922) and Staphylococcus aureus (S. aureus 29213) were purchased from the American Type Culture Collection (ATCC; Manassas, VA, USA) and were used for screening of antimicrobial activity. Briefly, putative AMPs were synthesized by Genscript (Piscataway, NJ, USA) and received in lyophilized format. These peptides were suspended using ultrapure water (Life Technologies, Grand Island, NY, USA; Invitrogen cat #10977-015), and an 11 μL two-fold serial dilution of 1280 to 2.5 μg/mL was prepared in duplicate rows in a 96-well microtiter plate, before being combined with 100 μL standardized bacterial inoculum yielding a final duplicate testing range of 128 to 0.25 μg/mL. The bacterial inoculum was prepared using colonies isolated on non-selective agar and combined with Mueller Hinton Broth. This suspension was measured and adjusted to achieve an optical density of 0.08-0.1, equivalent to a 0.5 McFarland standard (1-2×10^8 cfu/mL). The inoculum was then diluted to a target concentration of 5±3×10^5 cfu/mL; total viable counts from the final inoculum were routinely performed to confirm the target bacterial density was achieved. […] The MIC and adjacent wells were plated onto non-selective agar; the concentration in which killed 99.9% of the inoculum following additional overnight incubation was determined to be the MBC.

S. aureus ATCC 29213 = format: cell-based, Staphylococcus aureus; conditions: for MIC (ug/mL) S. aureus: ATCC 29213
In short: (§1)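 CLSI broth microdilution adapted for cationic peptides, in Mueller-Hinton broth, inoculum 2-8×10^5 cfu/mL. Peptides serially diluted from 128 to 0.5 μg/mL in polypropylene plates, incubated 20-24 h at 37° C. MIC = lowest concentration without visible growth.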

[3] = test system: Salmonella enterica serovar Enteritidis (human clinical isolate); format: cell-based; conditions: serovar Enteritidis (human clinical isolate)
In short: as §1

[4] = alamarBlue cell viability assay (cytotoxicity); format: cell-based, human; conditions: human, HEK293 cells; for viability at 4 h, 64 µg/mL: at 64 μg/mL; for viability at 4 h, 128 µg/mL: at 128 μg/mL
Procedure: (§2) The human embryonic kidney cell line HEK293 and the corresponding growth media and supplements were purchased from the ATCC. The cells were maintained in Eagle's Minimum Essential Medium (EMEM) supplemented with 10% fetal bovine serum (FBS) and 1% Penicillin-Streptomycin solution and grown in a 5% CO2 incubator at 37° C. […] Cells were incubated overnight to allow them to adhere. […] TX-100 was diluted to 2% in UltraPure deionized water and added as a positive control. Complete growth medium was added to the peptides and TX-100 containing wells. Spent growth medium of wells with adhered cells was replaced with the contents of wells containing serially diluted peptides or TX-100. Cells were incubated for four hours at 37° C. in 5% CO2 incubator. Growth medium containing peptides or TX-100 was replaced with fresh growth medium containing 10% (v/v) alamarBlue (Bio-Rad Laboratories, Hercules, CA, USA) and incubated for 20 h. Fluorescence was measured at excitation of 540 nm and emission of 590 nm in a Cytation 5 plate reader (Agilent BioTek, Winooski, VT, USA) and results recorded and analyzed with Gen5 software (Agilent BioTek, Winooski, VT, USA). The average fluorescence reads of TX-100 and growth media only wells were used to calculate 0% and 100% cell viability, respectively. The percentage of viable cells at each peptide concentration was determined by Formula 1: […]

HEK293 cells = experiment: alamarBlue cell viability assay (cytotoxicity); format: cell-based, human; conditions: concentrations up to 128 μg/mL
Procedure: as §2

E. coli ATCC 25922 = format: cell-based, Escherichia coli
In short: as §1

| SMILES | inhibitory activity (asterisk) [1] | MIC* (μg/mL) E. coli [2] | spectrum of antimicrobial activity [1] | MIC (ug/mL) S. aureus (S. aureus ATCC 29213) | MIC (ug/mL) S. Enteritidis [3] | viability at 4 h, 64 µg/mL [4] | viability at 4 h, 128 µg/mL [4] | cytotoxicity (HEK293 cells) | MIC against E. coli (E. coli ATCC 25922) | MIC against Salmonella Enteritidis [3] | MIC (ug/mL) E. coli (E. coli ATCC 25922; ATCC 25922) | MIC against E. coli (E. coli ATCC 25922; ATCC 25922) | MIC against S. aureus (S. aureus ATCC 29213) |
| --- | --- | --- | --- | --- | --- | --- | --- | --- | --- | --- | --- | --- | --- |
| CC[C@H](C)[C@H](NC(=O)CN)C(=O)N[C@@H](CC(C)C)C(=O)N[C@@H](CC(=O)O)C(=O)N[C@H](C(=O)N[C@@H](CC(C)C)C(=O)N[C@@H](CCCCN)C(=O)N[C@@H](CCC(N)=O)C(=O)N[C@@H](CC(C)C)C(=O)NCC(=O)N[C@@H](CCCCN)C(=O)N[C@@H](C)C(=O)N[C@@H](C)C(=O)N[C@H](C(=O)N[C@@H](CCC(N)=O)C(=O)NCC(=O)N[C@@H](CC(C)C)C(=O)N[C@@H](CC(C)C)C(=O)N[C@@H](CO)C(=O)N[C@@H](CCCCN)C(=O)N[C@@H](C)C(=O)N[C@@H](C)C(=O)N[C@@H](CS)C(=O)N[C@@H](CCCCN)C(=O)N[C@@H](CC(C)C)C(=O)N[C@@H](C)C(=O)N[C@@H](CCCCN)C(=O)N[C@H](C(=O)N[C@@H](CS)C(=O)O)[C@@H](C)O)C(C)C)[C@@H](C)O [AmMa1] (H-GILDTLKQLGKAAVQGLLSKAACKLAKTC-OH; N-terminus and C-terminus assumed) | 12.* GILDTLKQLGKAAVQGLLSKAACKLAKTC | 2 to 4 µg⁻¹ mL⁻¹ | – | – | – | – | – | – | – | – | – | – | – |
| CC[C@H](C)[C@H](NC(=O)CNC(=O)[C@H](CCCNC(=N)N)NC(=O)[C@H](CC(C)C)NC(=O)[C@H](CC(C)C)NC(=O)CN)C(=O)N[C@@H](CC(C)C)C(=O)NCC(=O)N[C@@H](C)C(=O)NCC(=O)N[C@@H](CCCCN)C(=O)N[C@@H](CCCCN)C(=O)N[C@H](C(=O)N[C@H](C(=O)N[C@@H](CS)C(=O)NCC(=O)N[C@@H](CC(C)C)C(=O)N[C@@H](CO)C(=O)NCC(=O)N[C@@H](CC(C)C)C(=O)N[C@@H](CS)C(=O)O)C(C)C)[C@@H](C)CC [OdMa2] (H-GLLRGILGAGKKIVCGLSGLC-OH; N-terminus and C-terminus assumed) | 64.* GLLRGILGAGKKIVCGLSGLC | – | active against all three bacteria | 4 to 8 µg/mL | 8 to 16 µg/mL | < 75% | ~0% | high levels of cytotoxicity at concentrations higher than their MICs | 4 µg/mL (≈ 1.97 µM) | – | – | – | – |
| CC(C)C[C@H](NC(=O)[C@H](CCCNC(=N)N)NC(=O)[C@@H]1CCCN1C(=O)[C@H](Cc1c[nH]cn1)NC(=O)[C@@H]1CCCN1C(=O)[C@@H]1CCCN1C(=O)[C@H](CCCNC(=N)N)NC(=O)[C@@H]1CCCN1C(=O)[C@@H]1CCCN1C(=O)[C@@H](NC(=O)[C@H](CCC(N)=O)NC(=O)[C@H](CCC(N)=O)NC(=O)[C@@H]1CCCN1C(=O)[C@H](CCCNC(=N)N)NC(=O)[C@@H]1CCCN1C(=O)[C@@H](N)CCCNC(=N)N)C(C)C)C(=O)N[C@@H](CCCNC(=N)N)C(=O)N[C@@H](CCCNC(=N)N)C(=O)O [PaVa1, RPRPQQVPPRPPHPRLRR] (H-RPRPQQVPPRPPHPRLRR-OH) | – | – | – | > 128 µg/mL | 4 to 8 µg/mL | – | – | not to be toxic to HEK293 cells at any of the concentrations tested; also recorded: not toxic against either porcine erythrocytes or HEK293 cells | – | 4 to 8 µg/mL | 2 to 4 µg/mL | 2 to 4 µg/mL | – |
| CC(C)C[C@H](NC(=O)CNC(=O)[C@@H](NC(=O)[C@@H](NC(=O)CNC(=O)[C@H](CS)NC(=O)[C@H](CC(C)C)NC(=O)[C@@H](NC(=O)[C@H](CCCCN)NC(=O)[C@H](CCCCN)NC(=O)CNC(=O)[C@@H](NC(=O)CNC(=O)[C@H](CC(C)C)NC(=O)[C@@H](NC(=O)[C@H](CCCCN)NC(=O)CNC(=O)[C@H](CC(C)C)NC(=O)[C@H](CC(C)C)NC(=O)CN)C(C)C)C(C)C)C(C)C)C(C)C)[C@@H](C)O)C(=O)N[C@@H](CS)C(=O)O [PeNi1] (H-GLLGKVLGVGKKVLCGVTGLC-OH; N-terminus and C-terminus assumed) | 363.* GLLGKVLGVGKKVLCGVTGLC | – | active against all three bacteria | – | 8 to 16 µg/mL | < 75% | ~0% | high levels of cytotoxicity at concentrations higher than their MICs | 4 µg/mL (≈ 1.99 µM) | – | – | – | 4 µg/mL (≈ 1.99 µM) |
| CC[C@H](C)[C@H](NC(=O)[C@H](CCCCN)NC(=O)CNC(=O)[C@H](CC(C)C)NC(=O)[C@H](CC(C)C)NC(=O)CN)C(=O)N[C@@H](CC(C)C)C(=O)NCC(=O)N[C@H](C(=O)NCC(=O)N[C@@H](CCCCN)C(=O)N[C@@H](CCCCN)C(=O)N[C@H](C(=O)N[C@@H](CC(C)C)C(=O)N[C@@H](CS)C(=O)NCC(=O)N[C@H](C(=O)N[C@@H](CO)C(=O)NCC(=O)N[C@@H](CC(C)C)C(=O)N[C@@H](CS)C(=O)O)C(C)C)C(C)C)C(C)C [PeNi9] (H-GLLGKILGVGKKVLCGVSGLC-OH; N-terminus and C-terminus assumed) | 32.* GLLGKILGVGKKVLCGVSGLC | – | active against all three bacteria | 4 to 8 µg/mL | 8 to 16 µg/mL | – | 0% | low or no cytotoxicity at lower concentrations; also recorded: high levels of cytotoxicity at concentrations higher than their MICs | – | – | 2 to 4 µg/mL | – | – |
| CC[C@H](C)[C@H](NC(=O)[C@H](CCCNC(=N)N)NC(=O)[C@H](CCCNC(=N)N)NC(=O)[C@@H]1CCCN1C(=O)[C@H](CS)NC(=O)[C@H](CS)NC(=O)[C@H](Cc1ccc(O)cc1)NC(=O)[C@H](CS)NC(=O)[C@H](CC(C)C)NC(=O)[C@@H](NC(=O)[C@H](CCCNC(=N)N)NC(=O)[C@@H](NC(=O)[C@H](Cc1ccccc1)NC(=O)[C@H](C)N)C(C)C)[C@@H](C)CC)C(=O)N[C@@H](CCCCN)C(=O)N[C@@H](CCCNC(=N)N)C(=O)N[C@@H](CCCNC(=N)N)C(=O)O [TeRu2, AFVRILCYCCPRRIKRR] (H-AFVRILCYCCPRRIKRR-OH; N-terminus and C-terminus assumed) | 994.* AFVRILCYCCPRRIKRR | – | – | 128 µg/mL (≈ 59.4 µM) | > 128 µg/mL | – | – | – | – | – | 64 to 128 µg/mL | – | – |
